Like-named read-outs stand apart in the source and are kept apart here.

Here are results for 22 molecules from patent US10118918B2, “PRMT5 inhibitors and uses thereof” (Epizyme, Inc., priority 2012, dated 2018).

The test system of experiment [1] is symmetric di-methyl arginine in Z-138 cells. In words: Z-138 Methylation Assay (In Cell Western for symmetric di-methyl arginine and DNA content). The experiment is classed as cell-based. As to conditions: 96 hours incubation, read-out: ICW EC50. The source says:
[formula] Where top and bottom are the normally allowed to float, but may be fixed at 100 or 0 respectively in a 3-parameter fit. The Hill Coefficient normally allowed to float but may also be fixed at 1 in a 3-parameter fit. Y is the % inhibition and X is the compound concentration. Z-138 Methylation Assay
Z-138 suspension cells were purchased from ATCC (American Type Culture Collection, Manassas, Va.). RPMI/Glutamax medium, penicillin-streptomycin, heat inactivated fetal bovine serum, and D-PBS were purchased from Life Technologies, Grand Island, N.Y., USA. Odyssey blocking buffer, 800CW goat anti-rabbit IgG (H+L) antibody, and Licor Odyssey infrared scanner were purchased from Licor Biosciences, Lincoln, Nebr., USA. Symmetric di-methyl arginine antibody was purchased from EMD Millipore, Billerica, Mass., USA. 16% Paraformaldehyde was purchased from Electron Microscopy Sciences, Hatfield, Pa., USA.
Z-138 suspension cells were maintained in growth medium (RPMI 1640 supplemented with 10% v/v heat inactivated fetal bovine serum and 100 units/mL penicillin-streptomycin) and cultured at 37° C. under 5% CO2.
Cell Treatment, in Cell Western (ICW) for Detection of Symmetric Di-Methyl Arginine and DNA Content.
Z-138 cells were seeded in assay medium at a concentration of 50,000 cells per mL to a 384-well cell culture plate with 50 μL per well. Compound (100 nL) from 384 well source plates was added directly to 384 well cell plate. Plates were incubated at 37° C., 5% CO2 for 96 hours. After four days of incubation, 40 μL of cells from incubated plates were added to poly-D-lysine coated 384 well culture plates (BD Biosciences 356697). Plates were incubated at room temperature for 30 minutes then incubated at 37° C., 5% CO2 for 5 hours. After the incubation, 40 μL per well of 8% paraformaldehyde in PBS (16% paraformaldahyde was diluted to 8% in PBS) was added to each plate and incubated for 30 minutes. Plates were transferred to a Biotek 405 plate washer and washed 5 times with 100 μL per well of wash buffer (IX PBS with 0.1% Triton X-100 (v/v)). Next 30 μL per well of Odyssey blocking buffer were added to each plate and incubated 1 hour at room temperature. Blocking buffer was removed and 20 μL per well of primary antibody was added (symmetric di-methyl arginine diluted 1:100 in Odyssey buffer with 0.1% Tween 20 (v/v)) and plates were incubated overnight (16 hours) at 4° C. Plates were washed 5 times with 100 μL per well of wash buffer. Next 20 μL per well of secondary antibody was added (1:200 800CW goat anti-rabbit IgG (H+L) antibody, 1:1000 DRAQ5 (Biostatus limited) in Odyssey buffer with 0.1% Tween 20 (v/v)) and incubated for 1 hour at room temperature. The plates were washed 5 times with 100 μL per well wash buffer then 1 time with 100 μL per well of water. Plates were allowed to dry at room temperature then imaged on the Licor Odyssey machine which measures integrated intensity at 700 nm and 800 nm wavelengths. Both 700 and 800 channels were scanned.
First, the ratio for each well was determined by:
Each plate included fourteen control wells of DMSO only treatment (minimum inhibition) as well as fourteen control wells for maximum inhibition treated with 3 μM of a reference compound (Background wells). The average of the ratio values for each control type was calculated and used to determine the percent inhibition for each test well in the plate. Reference compound was serially diluted three-fold in DMSO for a total of nine test concentrations, beginning at 3 μM. Percent inhibition was determined and IC50 curves were generated using triplicate wells per concentration of compound. […]

In a further experiment the test system is Z-138 cells. The experiment can be described thus: Z-138 Proliferation Assay (Cell Titer Glo). The experiment is classed as cell-based. As to conditions: 5 days incubation. From the text:
[formula] Z-138 Proliferation Assay
Z-138 suspension cells were purchased from ATCC (American Type Culture Collection, Manassas, Va.). RPMI/Glutamax medium, penicillin-streptomycin, heat inactivated fetal bovine serum were purchased from Life Technologies, Grand Island, N.Y., USA. V-bottom polypropylene 384-well plates were purchased from Greiner Bio-One, Monroe, N.C., USA. Cell culture 384-well white opaque plates were purchased from Perkin Elmer, Waltham, Mass., USA. Cell-Titer Glo® was purchased from Promega Corporation, Madison, Wis., USA. SpectraMax M5 plate reader was purchased from Molecular Devices LLC, Sunnyvale, Calif., USA.
Z-138 suspension cells were maintained in growth medium (RPMI 1640 supplemented with 10% v/v heat inactivated fetal bovine serum and cultured at 37° C. under 5% CO2. Under assay conditions, cells were incubated in assay medium (RPMI 1640 supplemented with 10% v/v heat inactivated fetal bovine serum and 100 units/mL penicillin-streptomycin) at 37° C. under 5% CO2.
For the assessment of the effect of compounds on the proliferation of the Z-138 cell line, exponentially growing cells were plated in 384-well white opaque plates at a density of 10,000 cells/ml in a final volume of 50 μl of assay medium. A compound source plate was prepared by performing triplicate nine-point 3-fold serial dilutions in DMSO, beginning at 10 mM (final top concentration of compound in the assay was 20 μM and the DMSO was 0.2%). A 100 nL aliquot from the compound stock plate was added to its respective well in the cell plate. […] After addition of compounds, assay plates were incubated for 5 days at 37° C., 5% CO2, relative humidity >90%.
Cell viability was measured by quantitation of ATP present in the cell cultures, adding 35 μl of Cell Titer Glo® reagent to the cell plates. Luminescence was read in the SpectraMax M5 microplate reader. The concentration of compound inhibiting cell viability by 50% was determined using a 4-parametric fit of the normalized dose response curves.

Regarding `C[C@@H](Oc1cccc2cccnc12)C(=O)NC[C@H](O)CN1Cc2ccccc2C1` [compound 5, (R)—N—((S)-2-hydroxy-3-(isoindolin-2-yl)propyl)-2-(quinolin-8-yloxy)propanamide], the EC50 in experiment [1] (Homo sapiens) was in the range of 101 to 1000 nM; in the experiment on Z-138 cells (Homo sapiens, 120 h) it was 1000 to 10000 nM.
In the same order, the values of `O=C(COc1ccccc1-c1cc[nH]n1)NCC(O)CN1Cc2ccccc2C1` (centres unmarked) [compound 7] are 101 to 1000 nM and greater than 20000 nM.
For `O=C(NCC(O)CN1Cc2ccccc2C1)c1cccc(-c2ccccn2)c1` (centres unmarked) [compound 13, N-(2-hydroxy-3-(isoindolin-2-yl)propyl)-3-(pyridin-2-yl)benzamide], the EC50 was 1000 to 10000 nM in experiment [1] (Homo sapiens) and greater than 20000 nM in the experiment with Z-138 cells (Homo sapiens, 120 h).
The like results for `CN(C)S(=O)(=O)c1ccccc1OCC(=O)NCC(O)CN1Cc2ccccc2C1` (centres unmarked) [compound 15, 2-(2-(N,N-dimethylsulfamoyl)phenoxy)-N-(2-hydroxy-3-(isoindolin-2-yl)propyl)acetamide] were, in that order, 101 to 1000 nM and 1000 to 10000 nM.
On to `O=C(COc1cccc2cccnc12)NCC(O)CN1Cc2ccccc2C1` (centres unmarked) [compound 19, N-(2-hydroxy-3-(isoindolin-2-yl)propyl)-2-(quinolin-8-yloxy)acetamide], for which the EC50 in experiment [1] (Homo sapiens) is 1000 to 10000 nM; in the experiment with Z-138 cells (Homo sapiens, 120 h), greater than 20000 nM.
In the same order, the values of `O=C(NC[C@H](O)CN1Cc2ccccc2C1)c1cccc(NC2CCOCC2)c1` [compound 28] are 101 to 1000 nM and 10000 to 50000 nM.
With `O=C(NC[C@H](O)CN1Cc2ccccc2C1)c1cc(NC2CCOCC2)ncn1` [compound 29], the EC50 in experiment [1] (Homo sapiens) was 101 to 1000 nM; with Z-138 cells (Homo sapiens, 120 h), 1000 to 10000 nM.
In the same order, the values of `Cc1nc(NC2COC2)cc(C(=O)NC[C@H](O)CN2Cc3ccccc3C2)n1` [compound 35] are greater than 1000 nM and greater than 20000 nM.
Regarding `O=C(NC[C@H](O)CN1Cc2ccccc2C1)c1cc(NC2COC2)nc(C(F)(F)F)n1` [compound 36], the concentration giving a half-maximal response (EC50) in experiment [1] (Homo sapiens) is 101 to 1000 nM; in the experiment with Z-138 cells (Homo sapiens, 120 h), 10000 to 50000 nM.
In the same order, the values of `O=C(CCc1nc2ccccc2[nH]1)NCC(O)CN1Cc2ccccc2C1` (centres unmarked) [compound 37] are 101 to 1000 nM and greater than 20000 nM.
In the case of `O=C(NC[C@H](O)CN1Cc2ccccc2C1)c1cc(NC2COC2)nc(N2CCOCC2)n1` [compound 38], the EC50 in experiment [1] (Homo sapiens) was less than 100 nM; in the experiment on Z-138 cells (Homo sapiens, 120 h), 1000 to 10000 nM.
In the same order, the values of `CC(=O)N1CCC(Nc2cc(C(=O)NC[C@H](O)CN3Cc4ccccc4C3)ccn2)CC1` [compound 40] are less than 100 nM and 101 to 1000 nM.
As to `O=C(NC[C@H](O)CN1CCc2ccccc21)c1cc(NC2COC2)ncn1` [compound 42], the half-maximal effective concentration (EC50) is greater than 1000 nM in experiment [1] (Homo sapiens) and greater than 5000 nM in the experiment on Z-138 cells (Homo sapiens, 120 h).
The like results for `CC(=O)N1CCC(Nc2cc(C(=O)NC[C@H](O)CN3CCc4ccccc43)ncn2)CC1` [compound 43] were, in that order, greater than 1000 nM and greater than 5000 nM.
The like results for `CC(=O)N1CCC(Nc2cc(C(=O)NC[C@H](O)CN3CCc4ccccc43)ccn2)CC1` [compound 44] were, in that order, greater than 1000 nM and greater than 5000 nM.
The like results for `O=C(NC[C@H](O)CN1CCCCc2ccccc21)c1cc(NC2COC2)ncn1` [compound 45] were, in that order, greater than 1000 nM and greater than 5000 nM.
On to `CC(=O)N1CC(Nc2cc(C(=O)NC[C@H](O)CN3CCCCc4ccccc43)ncn2)C1` [compound 46], for which the EC50 was greater than 1000 nM in experiment [1] (Homo sapiens) and greater than 5000 nM with Z-138 cells (Homo sapiens, 120 h).
In the same order, the values of `CC(=O)N1CCC(Nc2cc(C(=O)NC[C@H](O)CN3CCCCc4ccccc43)ncn2)CC1` [compound 47] are greater than 1000 nM and greater than 5000 nM.
The like results for `O=C(NC[C@H](O)CN1CCCc2ccccc2C1)c1cc(NC2COC2)ncn1` [compound 48] were, in that order, greater than 1000 nM and greater than 5000 nM.
In the same order, the values of `CC(=O)N1CC(Nc2cc(C(=O)NC[C@H](O)CN3CCCc4ccccc4C3)ncn2)C1` [compound 49] are greater than 1000 nM and greater than 5000 nM.
As for `CC(=O)N1CCC(Nc2cc(C(=O)NC[C@H](O)CN3CCCc4ccccc4C3)ncn2)CC1` [compound 50], the EC50 is greater than 1000 nM in experiment [1] (Homo sapiens) and greater than 5000 nM in the experiment on Z-138 cells (Homo sapiens, 120 h).
Regarding “N-(2-hydroxy-3-(isoindolin-2-yl)propyl)-2-((4-methyl-3,4-dihydro-2H-benzo[b][1,4]oxazin-5-yl)oxy)acetamide [compound 10]”, the values for the EC50 (in experiment [1]; with Z-138 cells) were 101 to 1000 nM and greater than 20000 nM, respectively.
